In paper PMC8887552 (The Journal of antibiotics, 2018):
Where no end group is shown, it is not given here.

How the values were obtained:
X. axonopodis = format: cell-based, Xanthomonas axonopodis; details: OD 600 after 16 h of growth, serial two-fold dilutions, room temperature, n = 3
[1] = tested on: sheep red blood cells (RBCs); format: cell-based

LSLIAAAGKETIRQYLKNEIKKKGRKAVIAW [Syn-safencin]
MIC (X. axonopodis): 8 µM | hemolytic activity (in words) [1]: mild hemolytic activity
